US20050148495A1, “Methods and materials including for treating acne” (priority 2003, published 2005)
≈ marks a conversion by molar mass, not a printed value. Like-named read-outs stand apart in the source and are kept apart here. Non-standard residues stand in square brackets, D forms with d. Residues, ends and D or L forms follow the SMILES beside them. d1Nal = N[C@H](Cc1cccc2ccccc12)C(=O)O

How the values were obtained:
[1] = in vivo; details: both, minipig, plasma, iv; for half-life: 0.05 or 2 mg/kg short IV infusion
[2] = system: Macrococcus caseolyticus; details: Macrococcus caseolyticus 29750
[3] = system: E. coli 07:K1; assay: Acute peritonitis model (survival); type: in vivo, mice; details: 10 mg/kg intraperitoneally; 1.4×10^7 CFU E. coli 07:K1; seven days
Experimental: In additional studies in an acute peritonitis model, mice were challenged intraperitoneally with 1.4×10^7 CFU E. coli 07:K1 and treated intraperitoneally with XMP.629 at 1, 3, or 10 mg/kg or saline. Mice were observed twice daily and mortality was recorded for seven days. Statistical comparisons between the treatment groups and saline were performed using a Chi Square test. […] At 10 mg/kg, 87% protection was observed. In additional studies, XMP.629 was safely administered at a dose of 20 mg/kg intravenously.

[4] = system: Salmonella typhimurium TA98, TA100, TA1535, TA1537 and Escherichia coli WP2uvrA; assay: Ames test: Salmonella-Escherichia coli/mammalian-microsome reverse mutation assay; type: cell-based; details: with and without S9
Experimental: XMP.629 was evaluated in an initial mutagenicity assay. In this Salmonella-Escherchia coli/mammalian-microsome reverse mutation assay, XMP.629 was evaluated for the ability to induce reverse mutations at the histidine locus in four tester strains of Salmonella-typhimurium (TA98, TA100, TA1535 and TA1537) and at the tryptophan locus in Escherichia coli tester strain, WP2uvrA, in the presence or absence of an exogenous metabolic activation system ([…]). The experimental materials, methods and procedures were based on those described by Ames et al., 1975 (Mutat. Res. 31; 347-364) and Green and Muriel, 1976 (Mutat. Res. 38: 3-32). The assay design was based on the OECD Guideline 471, updated and adopted Jul. 21, 1997. Based on the results of an initial dose rangefinding study, XMP.629 was evaluated using (a) four standard Salmonella tester strains with the rat hepatic S9 (microsomal) fraction at doses of 1.00, 3.33, 10.0, 33.3, 66.7 and 100 μg/plate, and without S9 at doses of 1.00, 3.33, 10.0, 25.0, 33.3 and 66.7 μg/plate; and (b) tester strain WP2uvrA with S9 at doses of 3.33, 10.0, 33.3, 100, 250 and 333 μg/plate and without S9 at doses of 1.00, 3.33, 10.0, 33.3, 66.7 and 100 μg/plate. XMP.629 was re-evaluated in an independent confirmatory experiment under similar conditions at lower doses.
In addition, the test article was freely soluble at all doses evaluated with and without S9. […]

[5] = Stability in aqueous solution as indicated by biological activity; type: physicochemical; details: 4° C.
Experimental: In additional studies, a variety of formulations of XMP.629 were tested for stability under various temperatures, such as 25° C., 40° C., and 50° C., and at various time points, such as 0.5, 1, and 2 months.

[6] = system: Corynebacterium; assay: microbe, parasite or virus in culture; type: cell-based
Experimental: (§1) Control tubes containing only water or formulation buffer were prepared for each isolate. Initial growth controls were determined by removing 10 μL from the water control tube and diluting it by 100 fold. From this dilution, 10 μL was used for inoculation and for spreading over the surface onto Laked Blood Agar (LBA) (Anaerobe Systems, Morgan Hill, Calif.) plates. The tubes and plates were incubated in an anaerobic atmosphere at 37° C. for 48 h. […] MBC50 and 90 values represent where 50 and 90%, respectively, of the tested strain's MBC values are equal to or less than the indicated concentration.

[7] = system: S. aureus; assay: Comparison of XMP.629 with standard topical agents (MIC90/MBC); type: cell-based, Staphylococcus aureus
Experimental: as §1

[8] = system: P. acnes (ATCC 6919); assay: Post-antibiotic effect (PAE) study; type: cell-based, Propionibacterium acnes
Experimental: Post-antibiotic effect (PAE) studies with XMP.629 were conducted according to the procedure described by Craig, W. and S. Gudmundsson, “Postantibiotic Effect,” p. 296, In: Lorian, V. (ed.) Antibiotics in Laboratory Medicine, 4th ed. The post antibiotic effect measures the duration that an antibiotic affects target organisms after contact with the bacteria. In this study, an initial concentration of 5×10^6 CFU/mL P. acnes (ATCC 6919) and 1 μg/mL were incubated for 15, 30, or 60 minutes and then diluted 100-fold in BHI. The treated organisms and matched untreated controls were incubated for […]. Samples were taken and counted at hourly intervals. Recovery was determined by plate counts over time.
The postantibiotic value is the difference in time between the controls and treated cultures to increase 1 log10. Because of the long generation time (slow growth) of the organism, the recovery time was unusually long, >12 hours. This may have influenced the results as typical assays are completed within 5-6 hours.

[9] = system: P. aeruginosa; type: cell-based, Pseudomonas aeruginosa
Experimental: as §1

[10] = system: Streptococcus sobrinus; details: Streptococcus sobrinus 27607
[11] = system: Streptococcus pneumoniae
[12] = system: P. acnes strain (ATCC 6919); details: ATCC 6919
[13] = system: eye of New Zealand White rabbits; assay: Rabbit primary eye irritation test (Draize); type: in vivo
Experimental: XMP.629 was evaluated in a rabbit primary eye irritation test for potential ocular irritant and/or corrosive effects when topically applied to the eye of three New Zealand White rabbits.
All animals received 0.1 mL of a 2% solution XMP.629 in 10 mM sodium acetate instilled into the right conjunctival sac and left in place for 24 hours. The control eye was untreated. The treated eye was washed out with 100 mL of lukewarm water for one to two minutes at approximately 24 hours post-dose. The treated and control eyes were examined at approximately 1, 24, 48, and 72 hours post-dose and on days 5, 8, and 15 for ocular irritation using the standard Draize scoring system (Draize et al., 1944, supra). Sodium fluorescein and ultraviolet light was used to examine for possible corneal injury.

**Q.** For CC(C)C[C@@H](NC(=O)[C@H](N)CCCCN)C(=O)N[C@H](Cc1ccccc1)C(=O)N[C@H](CCCNC(=N)N)C(=O)N[C@H](Cc1cccc2ccccc12)C(=O)N[C@H](CCC(N)=O)C(=O)N[C@H](C)C(=O)N[C@H](CCCCN)C(=O)N[C@H](Cc1cccc2ccccc12)C(N)=O [XMP.629, NH2-lys-leu-phe-arg-(3-(1-naphthyl)-ala)-gln-ala-lys-(3-(1-naphthyl)-ala)-CONH2] (H-[dK][dL][dF][dR][d1Nal][dQ][dA][dK][d1Nal]-NH2), which Vd ([1]; Sinclair mini-pig) is on record?
**A.** 0.067 to 0.102 L/kg

**Q.** And the clearance ([1]; Sinclair mini-pig)?
**A.** 1.75 to 2.6 mL/min/kg

**Q.** And the Vd ([1]; Sinclair mini-pig, 0.05 mg/kg)?
**A.** 1.79 L/kg

**Q.** And the Vd ([1]; Sinclair mini-pig, 0.2 mg/kg)?
**A.** 0.956 L/kg

**Q.** What about the half-life ([1]; Sinclair mini-pig, beta half-life) of the same molecule?
**A.** 1 to 1.3 h

**Q.** And the half-life ([1]; Sinclair mini-pig, initial half-life)?
**A.** 0.03 to 0.9 h

**Q.** And the half-life ([1]; Sinclair mini-pig, terminal half-life)?
**A.** ~15 h

**Q.** And the MRT ([1]; Sinclair, 0.05 mg/kg)?
**A.** 11.3 h

**Q.** What about the clearance ([1]; Sinclair, 0.05 mg/kg) of the same molecule?
**A.** 2.59 mL/min/kg

**Q.** And the MRT ([1]; Sinclair, 0.2 mg/kg)?
**A.** 7.41 h

**Q.** And the clearance ([1]; Sinclair, 0.2 mg/kg)?
**A.** 1.74 mL/min/kg

**Q.** And the “Minimum Inhibitory Concentrations” value [2]?
**A.** 2.00 µg/mL

**Q.** And the “protection (survival)” value [3]?
**A.** 87%

**Q.** What about the “reverse mutation assay result” value [4] of the same molecule?
**A.** negative

**Q.** What about the “stable in aqueous solution as indicated by biological activity” value [5] of the same molecule?
**A.** greater than 6 months

**Q.** What about the “MIC90, XMP.629 data reported as MBC values” (“MIC90, XMP.629 data reported” below) [6] of the same molecule?
**A.** 0.25 µg/mL (≈ 0.195 µM)

**Q.** And the “MIC90, XMP.629 data reported” value ([6]; in FB (formulation buffer))?
**A.** <0.25 µg/mL

**Q.** What about the “MIC90, XMP.629 data reported” value [7] of the same molecule?
**A.** 8 µg/mL (≈ 6.23 µM)

**Q.** And the “MIC90, XMP.629 data reported” value ([7]; in FB (formulation buffer))?
**A.** 0.06 µg/mL (≈ 0.0467 µM)

**Q.** And the PAE value ([8]; 1 μg/mL, contact 30 or 60 minutes, accurate value could not be assigned)?
**A.** ≥ 12 h

**Q.** And the “recovery of affected cells” value ([8]; exposure to 0.5 to 2.0 MBCs for 15 minutes)?
**A.** did not recover, even after 24 hours of incubation

**Q.** And the “duration of continuing inhibitory, but not lethal, effect after contact” value ([8]; residence time greater than 15 minutes)?
**A.** more than 5 hours

**Q.** What about the “MIC90, XMP.629 data reported” value [9] of the same molecule?
**A.** 32 µg/mL (≈ 24.9 µM)

**Q.** And the “MIC90, XMP.629 data reported” value ([9]; in FB (formulation buffer))?
**A.** 0.5 µg/mL (≈ 0.39 µM)

**Q.** What about the “Minimum Inhibitory Concentrations” value [10] of the same molecule?
**A.** 2.00 µg/mL

**Q.** And the “Minimum Inhibitory Concentrations” value ([11]; Streptococcus pneumoniae 6303)?
**A.** 8.00 µg/mL

**Q.** What about the “Minimum Inhibitory Concentrations” value ([11]; Streptococcus pneumoniae 10031) of the same molecule?
**A.** 8.00 µg/mL

**Q.** What about the “Minimum Inhibitory Concentrations” value ([11]; Streptococcus pneumoniae 35088) of the same molecule?
**A.** 2.00 µg/mL

**Q.** What about the MIC/MBC [12] of the same molecule?
**A.** >4 µg/mL

**Q.** What about the “ocular irritation, overall” value ([13]; 2% XMP.629 in 10 mM sodium acetate solution) of the same molecule?
**A.** mildly irritating

**Q.** And the corneal opacity ([13]; 2% solution in 10 mM sodium acetate, any time point)?
**A.** no effects on corneal opacity

**Q.** And the “iris, average scores” value ([13]; 2% solution, 48 hours post-instillation)?
**A.** less than 1
